Holding throughout (assay): NCI-60 cell line screen, 48 h
Experiment [1] relates to TK-10 renal.
The test system of experiment [2] is RPMI-8226 leukemia.
Experiment [3] relates to SF-539 CNS.
For experiment [4], the system named is OVCAR-3 ovarian.
Experiment [5] relates to IGROV1 ovarian.
Experiment [6] has as its system SK-MEL-5 melanoma.
In experiment [7] the test system is SR leukemia.
For experiment [8], the system named is SK-MEL-28 melanoma.
Experiment [9] has as its system MDA-N.
For experiment [10], the system named is SN12C renal.
Experiment [11] relates to MDA-MB-231 breast.
Experiment [12] relates to NCI-H522 lung.
Experiment [13] concerns HOP-62 NSCLC.
Experiment [14] concerns K-562 leukemia.
The test system of experiment [15] is HOP-92 NSCLC.
Experiment [16] deals with OVCAR-4 ovarian.
The subject of experiment [17] is SW-620 colon.
For experiment [18], the system named is NCI/ADR-RES ovarian.
Experiment [19] has as its system NCI-H460 lung.
The subject of experiment [20] is A498 renal.

Structures are written as SMILES.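 Values below derive from 48-hour exposures of cells grown in 96-well plates, with endpoints linearly interpolated between the two concentrations bracketing the appropriate inhibition level. The concentration for full growth arrest is given as TGI.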

As for `C=CCC1(C(=O)OC)CCC/C(=N\O)C1` (stereo unspecified), the TGI in experiment [1], in experiment [2], in experiment [3], in experiment [4], in experiment [5] and in [6] was greater than 10 µM in each case. Further, the TGI in experiment [7], in experiment [8], in [9], in experiment [10], in experiment [11] and in experiment [12] was greater than 10 µM throughout. Further, the TGI in [13], in [14], in experiment [15], in [16], in [17] and in experiment [18] was greater than 10 µM in each case.

For `COc1ccc2[nH]cc(CCNC(=O)[C@H](Cc3ccc(O)cc3)NC(=O)[C@@H](NCC(F)(F)F)C(C)C)c2c1`, the TGI was greater than 100 µM in [1]; greater than 100 µM in experiment [2]; greater than 100 µM in experiment [3]; 57.4 µM in experiment [4]; greater than 100 µM in experiment [19]; greater than 100 µM in experiment [5]. For the same compound, the TGI in experiment [7], in [8], in [9], in experiment [10], in experiment [11] and in experiment [12] was greater than 100 µM throughout. The TGI in [13], in experiment [14], in experiment [15], in experiment [16], in experiment [17] and in [18] was greater than 100 µM throughout.

For the compound `Nn1c(CCCCCCCCc2nnc(-c3c(O)ccc4ccccc34)n2N)nnc1-c1c(O)ccc2ccccc12`, the TGI in [1], in experiment [2], in experiment [3], in [4], in experiment [19] and in experiment [5] was greater than 100 µM in each case. Also, the TGI in [6], in [7], in experiment [8], in [9], in experiment [10] and in experiment [11] was greater than 100 µM in each case. The TGI in experiment [12], in experiment [13], in experiment [15], in [16], in experiment [17] and in [18] was greater than 100 µM each time.

Turning to `Nc1nc(Cl)cc(NCC2(CCO)CCC2)n1`, the TGI in experiment [1], in experiment [2], in experiment [3], in [4], in experiment [19] and in [5] was greater than 100 µM throughout. Also, the TGI in [6], in experiment [7], in experiment [8], in experiment [9], in experiment [10] and in [11] was greater than 100 µM throughout. The TGI in experiment [12], in [13], in experiment [14], in [15], in experiment [16] and in [17] was greater than 100 µM throughout. The TGI in experiment [18] is greater than 100 µM.

On to `O=c1onc2n1-c1ccc(Cl)cc1C(=S)N1CSCC21` (stereo unspecified), for which the TGI in experiment [1] was greater than 100 µM; in [2], greater than 100 µM; in experiment [4] it was greater than 100 µM; in experiment [19] it was 40 µM; in experiment [5] it was greater than 100 µM; in experiment [6] it was greater than 100 µM. The TGI in experiment [7] is 48.1 µM; in experiment [8], greater than 100 µM; in [9] it was 23.7 µM; in experiment [10] it was 88.2 µM; in [11] it was 41.8 µM; in experiment [12], 62.9 µM. Further, the TGI in experiment [13] is greater than 100 µM; in experiment [14], greater than 100 µM; in [16], greater than 100 µM; in experiment [20], 64 µM; in [17] it was 47.7 µM; in experiment [18], 36.4 µM.

On to `COc1ccc(/C=C2\N=C(N3CCCC(CO)C3)NC2=O)cc1` (stereo unspecified), for which the TGI in experiment [1], in [2], in [3], in experiment [4], in experiment [5] and in experiment [6] was greater than 100 µM throughout. Moreover, the TGI in [7], in experiment [8], in experiment [9], in experiment [10], in [11] and in experiment [12] was greater than 100 µM each time. The TGI in experiment [13], in experiment [15], in experiment [16], in experiment [17] and in experiment [18] was greater than 100 µM throughout.

For the compound `COc1ccc(/C=N\N(C)Cc2cccc3ccsc23)cc1`, the TGI in [1], in [4], in experiment [19], in experiment [5], in [6] and in [7] was greater than 100 µM each time. In addition, the TGI in experiment [8], in experiment [9], in experiment [10], in [11], in experiment [12] and in [13] was greater than 100 µM throughout. Further, the TGI in [14], in [15], in [16], in [20], in [17] and in experiment [18] was greater than 100 µM in each case.

(Values after PubChem BioAssay (NCI).)
